The term Ki denotes a dissociation constant, usually derived from enzyme kinetics or from competition with a known ligand. A lower Ki goes with a stronger hold on the target. One may read the GI50 as the concentration giving 50% growth inhibition. The low end stands for more potent growth inhibition, the high end for less potent growth inhibition.

The target in one test is hERG (Homo sapiens (Human), UniProt Q12809). The test can be described thus: hERG assay (radioligand membrane binding). As to the method: Procedure: Compounds were prepared and diluted with DMSO to make 0.2 mM and 0.02 mM. Reference compound was diluted with DMSO to make 8-point 4-fold serial dilution, starting at 0.2 mM. One μl of compounds/high control/low control was transferred to the assay plate according to the plate map. Next, and by following the plate map, 100 μl of membrane stocks was dispensed into the plate followed by adding 100 μl of radio ligand. Plates were then sealed and were incubated at RT for 1 hrs. In the meantime, soak the Unifilter-96 GF/C filter plates with 50 μl of 0.5% BSA per well for at least 0.5 hour at room temperature. When binding assays are completed, filter the reaction mixture through GF/C plates using Perkin Elmer Filtermate Harvester, and then wash each plate for 4 times with cold wash buffer. Next, Dry the filter plates for 1 hour at 50 degrees and seal the bottom of the filter plate wells using Perkin Elmer Unifilter-96 backing seal tape. Next, add 50 μl of Perkin Elmer Microscint 20 cocktail. Seal the top of the filter plate with Perkin Elmer TopSeal-A sealing film. Using Perkin Elmer MicroBeta2 Reader count ^3H trapped on filter. Finally, analyze the data with GraphPad Prism 5. Calculate the “Inhibition [% Control]” using the equation: % Inh=(1−Background subtracted Assay value/Background subtracted HC value)*100.
Sequence of hERG (Q12809 whole entry): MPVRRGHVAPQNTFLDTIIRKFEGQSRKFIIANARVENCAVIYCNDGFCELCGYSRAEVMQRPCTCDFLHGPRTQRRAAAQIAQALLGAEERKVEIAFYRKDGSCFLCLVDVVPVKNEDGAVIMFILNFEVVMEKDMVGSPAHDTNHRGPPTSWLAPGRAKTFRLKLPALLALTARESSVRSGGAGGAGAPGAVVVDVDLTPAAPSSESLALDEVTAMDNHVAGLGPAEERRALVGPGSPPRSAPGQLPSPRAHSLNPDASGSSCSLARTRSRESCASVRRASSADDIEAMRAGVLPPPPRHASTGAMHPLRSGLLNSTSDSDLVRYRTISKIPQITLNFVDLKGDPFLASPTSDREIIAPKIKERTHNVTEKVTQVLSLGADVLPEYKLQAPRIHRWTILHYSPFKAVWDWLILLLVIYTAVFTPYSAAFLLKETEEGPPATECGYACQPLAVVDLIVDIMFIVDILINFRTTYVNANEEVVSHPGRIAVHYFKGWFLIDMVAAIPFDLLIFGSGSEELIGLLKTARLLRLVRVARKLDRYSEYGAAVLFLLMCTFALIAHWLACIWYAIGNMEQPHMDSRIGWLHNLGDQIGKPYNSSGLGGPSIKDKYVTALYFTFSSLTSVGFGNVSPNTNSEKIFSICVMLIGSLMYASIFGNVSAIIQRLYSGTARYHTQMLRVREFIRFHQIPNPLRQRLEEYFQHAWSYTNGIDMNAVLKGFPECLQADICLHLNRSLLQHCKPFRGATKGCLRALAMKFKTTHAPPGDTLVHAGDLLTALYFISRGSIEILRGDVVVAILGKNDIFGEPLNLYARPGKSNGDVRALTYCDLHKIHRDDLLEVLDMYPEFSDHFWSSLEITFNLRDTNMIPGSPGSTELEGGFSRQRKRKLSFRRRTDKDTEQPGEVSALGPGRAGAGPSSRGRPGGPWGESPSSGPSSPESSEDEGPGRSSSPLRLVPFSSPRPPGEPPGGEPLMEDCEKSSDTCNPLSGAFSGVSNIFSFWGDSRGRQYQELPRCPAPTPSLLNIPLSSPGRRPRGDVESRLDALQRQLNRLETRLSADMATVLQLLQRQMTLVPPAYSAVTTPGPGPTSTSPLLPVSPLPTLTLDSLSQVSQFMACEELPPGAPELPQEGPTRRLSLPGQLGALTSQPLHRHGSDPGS
The compound of the disclosure were tested in several hERG assays.
On the technique in general: hERG is a cardiac potassium channel; its block is linked to QT prolongation.

The target of test [1] is MLL1-WDR5 protein-protein interaction (Homo sapiens (Human), UniProt P61964). The test can be described thus: WDR5 TR-FRET assay of inhibition against MLL1-WDR5 protein-protein interaction. Format: binding. Conditions: WDR5 TR-FRET, 5 nM WDR5 protein, 10 nM peptide; read-out: MLL1-WDR5 PPI inhibitory activity. The method, then:
WDR5 TR-FRET Assay Procedure: Stock compounds were transferred to the assay plate by Echo Liquid Handler. Reactions were performed in the assay buffer (1×PBS, 300 mM NaCl, 0.5 mM TCEP, 0.1% CHAPS) containing 5 nM WDR5 protein, 10 nM peptide (Ac-ARTEVHLRKS-[Ahx-Ahx] [C]-Alexa Fluor 488-NH2) and 0.25 nM Tb-anti His antibody (Tb-Ab) in 384-well white plate (PerkinElmer) with a final volume of 20 μl. Compounds were incubated with WDR5 protein for 30 min at room temperature. Plates were covered, protected from light and incubated for 60 min at room temperature after adding the peptide and Tb-Ab. EnVision Multimode Plate Reader (PerkinElmer) was used for the TR-FRET assay with excitation wavelength at 340 nm and emission wavelength at 495 and 520 nm. The ratio of the 520/495 wavelengths were used to assess the degree of the FRET signal. IC50 was calculated by fitting the inhibition data using XLfit software to sigmoidal dose-response model.
Biphenyl compound DDO-2084 was reported to be a small molecule inhibitor that can inhibit MLL1-WDR5 protein-protein interaction, reduce MLL1 enzyme catalytic activity, and downregulate the expression of Hox and Meis-1 genes (Eur. J. Med. Chem. 2016, 124, 480-489). DDO-2084 is used as a positive control compound.

Another test relates to MV-411 cells. The test can be described thus: Anti-proliferative activity against leukemia cells (CellTiterGlo viability, 72 hrs). Format: cell-based. Particulars: Table 6. As to the method: Procedure: MV-411 or Molm-13 cells were seeded into 384 well plates at 2000 cells/well density in 50 uL according plate map and were allowed to naturally sediment by waiting about 30 min in Clean Bench. Next, plated cells were centrifuged for 1 min at 1000 rpm and the excess cells were transferred into the flasks for further culture. Cells in the assay plates were incubated (at least 4 hrs) at 37° C., 5% CO2 for next process followed by adding the compounds as the plate map indicated. The tests were performed in duplicates with treatment of compounds at 10 pts 3 fold titration in 384 well plates. Taxol was as positive control while DMSO as negative control. To rule out edge effect, the wells on the edge were not seeded and therefore one 384 well plate holds 13 compounds. Cells viability was measured 72 hrs after incubation with compounds and using CellTiterGlo (promega) viability assay according to manufactory's instruction to check the ATP production in each well.
Experiments on anti-proliferative activity against leukemia cells were conducted with some of the compounds of the invention.
(In general: Cellular ATP, detected with luciferase, serves as a proxy for viable cell number.)

The mark [2] stands for this setting: MV4-11, MV-411 human acute monocytic leukemia cell.
The mark [3] stands for this setting: MV-411 human acute monocytic leukemia cell.

Consider `CCN(CC)C(=O)c1cn(-c2cc(NC(=O)c3cc(N)c(F)c(C)c3Cl)c(N3C[C@@H](C)N(C)[C@@H](C)C3)cc2F)nn1` [Compound 29, 1-(5-(5-amino-2-chloro-4-fluoro-3-methylbenzamido)-2-fluoro-4-((3S,5R)-3,4,5-trimethylpiperazin-1-yl)phenyl)-N,N-diethyl-1H-1,2,3-triazole-4-carboxamide], for which, at hERG, the IC50 is 3600 nM and the inhibition constant Ki turned out to be 2040 nM.
`Cc1c(F)c([N+](=O)[O-])cc(C(=O)Nc2cc(-n3cc(C(=O)NCCCN4CCOCC4)nn3)ccc2N2CCN(C)CC2)c1Cl` [Example 18, 1-[3-[(2-chloro-4-fluoro-3-methyl-5-nitro-benzoyl)amino]-4-(4-methylpiperazin-1-yl)phenyl]-N-(3-morpholinopropyl)triazole-4-carboxamide]: the IC50 at hERG was greater than 10000 nM.
Consider `CN1CCN(c2ccc(-n3cc(C(=O)NCCCN4CCOCC4)nn3)cc2NC(=O)c2ccc(F)c([N+](=O)[O-])c2)CC1` [Example 19, 1-(3-(4-fluoro-3-nitrobenzamido)-4-(4-methylpiperazin-1-yl)phenyl)-N-(3-morpholinopropyl)-1H-1,2,3-triazole-4-carboxamide], for which, at hERG, the IC50 is greater than 10000 nM.
Same read-out and setting: the figure for `CN1CCN(c2ccc(-n3cc(C(=O)NCCCN4CCOCC4)nn3)cc2NC(=O)c2ccc(F)c(C(F)(F)F)c2)CC1` [Example 21, 1-(3-(4-fluoro-3-(trifluoromethyl)benzamido)-4-(4-methylpiperazin-1-yl)phenyl)-N-(3-morpholinopropyl)-1H-1,2,3-triazole-4-carboxamide] is greater than 10000 nM.
Consider `CN1CCN(c2ccc(-n3cc(C(=O)NCCCN4CCOCC4)nn3)cc2NC(=O)c2cc(O)cc(C(F)(F)F)c2)CC1` [HYBI_046], for which the IC50 in test [1] is 271 nM. The compound also came in with a GI50 with MV-411 cells (setting [2]) of 10.5 µM.
Take `CN1CCN(c2ccc(-n3cc(C(=O)NCCCN4CCOCC4)nn3)cc2NC(=O)c2cc(O)cc(F)c2F)CC1` [HYBI_047]: in test [1], the IC50 was found to be 466 nM. Also, in the test with MV-411 cells (setting [2]), the GI50 is 16.8 µM.
Turning to `CN1CCN(c2ccc(-n3cc(C(=O)NCCCN4CCOCC4)nn3)cc2NC(=O)c2nn(C)c3ccccc23)CC1` [HYBI_050], the IC50 in test [1] came to 5560 nM. Besides, halving of growth in the test on MV-411 cells (setting [2]) (GI50) required 10.7 µM.
Regarding `Cc1c(F)ccc(C(=O)Nc2cc(-n3cc(C(=O)NCCCN4CCOCC4)nn3)c(F)cc2N2CCN(C)CC2)c1Cl` [HYBI_053], the IC50 in test [1] is 19.4 nM. Halving of growth in the test on MV-411 cells (setting [3]) (GI50) required 5.69 µM.
`CCN(CC)C(=O)c1cn(-c2cc(NC(=O)c3cc(N)c(F)c(C)c3Cl)c(N3C[C@@H](C)N(C)[C@@H](C)C3)cc2F)nn1` [HYBI_082]: the IC50 in test [1] came out at 4.91 nM. In the test on MV-411 cells (setting [3]), the GI50 came out at 2.4 µM.
In the case of `Cc1c(F)c(N)cc(C(=O)Nc2cc(-n3cc(C(=O)N4CCOCC4)nn3)c(F)cc2N2C[C@@H](C)N(C)[C@@H](C)C2)c1Cl` [HYBI_083], the IC50 in test [1] stood at 3.08 nM. The same compound returned a GI50 in the test on MV-411 cells (setting [2]) of 40.2 µM.
As to `Cc1c(F)c(N)cc(C(=O)Nc2cc(-n3cc(C(=O)N4CCN(C)CC4)nn3)c(F)cc2N2C[C@@H](C)N(C)[C@@H](C)C2)c1Cl` [HYBI_084], in test [1], the IC50 was 4.72 nM. The compound also had a GI50 in the test with MV-411 cells (setting [2]) of 3.35 µM.
For the compound `Cc1c(F)c(N)cc(C(=O)Nc2cc(-n3cc(C(=O)NC4CCCCC4)nn3)c(F)cc2N2C[C@@H](C)N(C)[C@@H](C)C2)c1Cl` [HYBI_085], the IC50 in test [1] came to 3.86 nM. This compound gave a GI50 with MV-411 cells (setting [2]) of 2.51 µM.
For `Cc1c(F)c(N)cc(C(=O)Nc2cc(-n3cc(C(=O)NC4CCOCC4)nn3)c(F)cc2N2C[C@@H](C)N(C)[C@@H](C)C2)c1Cl` [HYBI_086] the same measures were 3.99 nM and 19.7 µM.
`Cc1c(F)c(N)cc(C(=O)Nc2cc(-n3cc(C(=O)NC4CCN(C)CC4)nn3)c(F)cc2N2C[C@@H](C)N(C)[C@@H](C)C2)c1Cl` [HYBI_087]: the IC50 in test [1] was 2.6 nM. Moreover, the GI50 with MV-411 cells (setting [2]) was greater than 200 µM.
For `Cc1c(F)c(N)cc(C(=O)Nc2cc(-n3cc(C(=O)NCCCN4CCN(C)CC4)nn3)c(F)cc2N2C[C@@H](C)N(C)[C@@H](C)C2)c1Cl` [HYBI_101], the IC50 in test [1] was found to be 3.65 nM. This compound returned a GI50 in the test with MV-411 cells (setting [2]) of 10.5 µM.
Consider `Cc1c(F)c(N)cc(C(=O)Nc2cc(-n3cc(C(=O)NCC4CCCCC4)nn3)c(F)cc2N2C[C@@H](C)N(C)[C@@H](C)C2)c1Cl` [HYBI_110], for which the IC50 in test [1] stood at 3 nM. Further, it took 25 µM to inhibit growth in the test with MV-411 cells (setting [2]) by half (GI50).

The values above are taken from patent US20230286925A1, “PHENYL TRIAZOLE MLL1-WDR5 PROTEIN-PROTEIN INTERACTION INHIBITOR” (HUYABIO International, LLC, priority 2022, published 2023).
